Among the data in ChEMBL document CHEMBL5226282, “TLR2 Agonistic Small Molecules: Detailed Structure-Activity Relationship, Applications, and Future Prospects” (J Med Chem, 2021) are EC50 values, retold here.

Experiment [1] addresses Toll-like receptor 1/2 (Mus musculus). Nature of the experiment: Agonist activity at TLR2/TLR1 in mouse Macrophage cell line.
The target in a further experiment is Toll-like receptor 1/2 (Homo sapiens, UniProt O60603+Q15399). Nature of the experiment: Agonist activity at TLR2/TLR1 in human THP-1 cells. Format: cell-based.
Chain of Toll-like receptor 1/2 (O60603 whole entry): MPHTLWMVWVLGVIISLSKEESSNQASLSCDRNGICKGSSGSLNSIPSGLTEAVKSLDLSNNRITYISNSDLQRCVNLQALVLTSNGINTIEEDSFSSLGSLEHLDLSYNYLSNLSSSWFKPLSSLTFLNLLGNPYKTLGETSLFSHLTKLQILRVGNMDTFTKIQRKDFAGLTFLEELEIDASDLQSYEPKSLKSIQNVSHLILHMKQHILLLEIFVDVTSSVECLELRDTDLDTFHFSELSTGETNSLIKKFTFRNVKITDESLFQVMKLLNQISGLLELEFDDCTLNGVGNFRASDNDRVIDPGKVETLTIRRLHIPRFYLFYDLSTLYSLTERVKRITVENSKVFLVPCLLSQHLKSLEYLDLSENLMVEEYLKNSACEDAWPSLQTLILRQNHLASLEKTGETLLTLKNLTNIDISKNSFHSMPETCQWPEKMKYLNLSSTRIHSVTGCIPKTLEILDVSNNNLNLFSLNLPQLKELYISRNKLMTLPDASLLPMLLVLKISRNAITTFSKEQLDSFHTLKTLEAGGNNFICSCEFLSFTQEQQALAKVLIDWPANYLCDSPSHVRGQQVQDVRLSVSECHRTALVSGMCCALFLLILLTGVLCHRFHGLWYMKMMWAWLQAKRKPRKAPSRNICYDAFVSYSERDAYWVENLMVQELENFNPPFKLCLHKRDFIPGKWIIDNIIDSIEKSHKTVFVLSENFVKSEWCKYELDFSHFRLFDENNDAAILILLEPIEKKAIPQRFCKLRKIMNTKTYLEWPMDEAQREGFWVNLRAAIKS
Chain of Toll-like receptor 1/2 (Q15399 whole entry): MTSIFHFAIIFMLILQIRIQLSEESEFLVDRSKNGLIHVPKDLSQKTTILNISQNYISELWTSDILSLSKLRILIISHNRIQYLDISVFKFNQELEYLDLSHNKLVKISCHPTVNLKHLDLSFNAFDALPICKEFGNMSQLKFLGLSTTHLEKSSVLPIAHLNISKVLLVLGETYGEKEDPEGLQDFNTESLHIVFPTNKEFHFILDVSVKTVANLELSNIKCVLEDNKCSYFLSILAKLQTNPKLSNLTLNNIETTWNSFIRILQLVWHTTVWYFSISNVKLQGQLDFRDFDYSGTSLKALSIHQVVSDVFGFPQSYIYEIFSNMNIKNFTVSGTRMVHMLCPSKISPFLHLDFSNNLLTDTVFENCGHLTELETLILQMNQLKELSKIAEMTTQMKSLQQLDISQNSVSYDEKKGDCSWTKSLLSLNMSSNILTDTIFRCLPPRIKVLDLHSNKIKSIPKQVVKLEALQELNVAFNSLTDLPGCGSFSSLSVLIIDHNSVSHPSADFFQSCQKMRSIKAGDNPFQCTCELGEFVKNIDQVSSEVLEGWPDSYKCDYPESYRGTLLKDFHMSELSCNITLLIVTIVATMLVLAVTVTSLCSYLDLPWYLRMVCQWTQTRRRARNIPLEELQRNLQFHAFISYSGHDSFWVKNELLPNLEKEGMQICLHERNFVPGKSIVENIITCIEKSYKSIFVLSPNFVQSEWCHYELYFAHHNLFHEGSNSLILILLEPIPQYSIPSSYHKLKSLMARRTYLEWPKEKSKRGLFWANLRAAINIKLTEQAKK

On to `O=C(NCCc1ccc(F)cc1)[C@@H]1CN(C(=O)c2ccc(-c3ccc(C(=O)N4C[C@@H](C(=O)NCCc5ccc(F)cc5)[C@H](C(=O)NCCc5ccc(F)cc5)C4)cc3)cc2)C[C@H]1C(=O)NCCc1ccc(F)cc1`, for which the EC50 (in experiment [1]; on Toll-like receptor 1/2) was over 5000 nM in each case.

Take `O=C(NCCc1ccc(F)cc1)[C@@H]1CN(C(=O)[C@H]2CC[C@H](C(=O)N3C[C@@H](C(=O)NCCc4ccc(F)cc4)[C@H](C(=O)NCCc4ccc(F)cc4)C3)CC2)C[C@H]1C(=O)NCCc1ccc(F)cc1`: the EC50 (in experiment [1]; on Toll-like receptor 1/2) was over 5000 nM each time.

As to `CCCCNC(=O)[C@@H]1CN(C(=O)c2ccc(C(=O)N3C[C@@H](C(=O)NCCCC)[C@H](C(=O)NCCCC)C3)cc2)C[C@H]1C(=O)NCCCC`, the concentration giving a half-maximal response (EC50) (in experiment [1]; on Toll-like receptor 1/2) was over 5 nM in each case.

Turning to `O=C(O)[C@@H]1CN(C(=O)c2ccc(C(=O)N3C[C@@H](C(=O)O)[C@H](C(=O)N[C@@H]4C[C@H]4c4ccccc4)C3)cc2)C[C@H]1C(=O)N[C@@H]1C[C@H]1c1ccccc1`, the EC50 (in experiment [1]; at Toll-like receptor 1/2) was over 5000 nM in each case.

For the compound `CCCCCCCCCCNC(=O)[C@@H]1CN(C(=O)c2ccc(C(=O)N3C[C@@H](C(=O)NCCCCCCCCCC)[C@H](C(=O)N[C@@H]4C[C@H]4c4ccccc4)C3)cc2)C[C@H]1C(=O)N[C@@H]1C[C@H]1c1ccccc1`, the EC50 in experiment [1] was 1100 nM; at Toll-like receptor 1/2 it was 35 nM.

In the case of `CCCCCCCCCCNC(=O)[C@@H]1CN(C(=O)c2ccc(C(=O)N3C[C@@H](C(=O)N[C@H]4C[C@@H]4c4ccccc4)[C@H](C(=O)N[C@@H]4C[C@H]4c4ccccc4)C3)cc2)C[C@H]1C(=O)N[C@H]1C[C@@H]1c1ccccc1`, the EC50 in experiment [1] is 650 nM; on Toll-like receptor 1/2, 0.1 nM.

For the compound `CCCCCCCCCCCCCCNC(=O)[C@@H]1CN(C(=O)c2ccc(C(=O)N3C[C@@H](C(=O)N[C@H]4C[C@@H]4c4ccccc4)[C@H](C(=O)N[C@@H]4C[C@H]4c4ccccc4)C3)cc2)C[C@H]1C(=O)N[C@H]1C[C@@H]1c1ccccc1`, the figures for the EC50 (in experiment [1]; at Toll-like receptor 1/2) were 1.1 nM and 0.08 nM, respectively.

Take `O=C(N[C@H]1C[C@@H]1c1ccccc1)[C@@H]1CN(C(=O)Cc2ccc(CC(=O)N3C[C@@H](C(=O)N[C@H]4C[C@@H]4c4ccccc4)[C@H](C(=O)N[C@H]4C[C@@H]4c4ccccc4)C3)cc2)C[C@H]1C(=O)N[C@H]1C[C@@H]1c1ccccc1`: the EC50 (in experiment [1]; at Toll-like receptor 1/2) was over 5000 nM in each case.

Regarding `CCCCCCCCCCCCNC(=O)[C@@H]1CN(C(=O)c2ccc(C(=O)N3C[C@@H](C(=O)N[C@H]4C[C@@H]4c4ccccc4)[C@H](C(=O)N[C@@H]4C[C@H]4c4ccccc4)C3)cc2)C[C@H]1C(=O)NCCCCCCCCCCCC`, the EC50 in experiment [1] amounted to 620 nM; at Toll-like receptor 1/2, 1.3 nM.

Consider `COc1cc(C(=O)N2C[C@@H](C(=O)N[C@H]3C[C@@H]3c3ccccc3)[C@H](C(=O)N[C@H]3C[C@@H]3c3ccccc3)C2)ccc1C(=O)N1C[C@@H](C(=O)N[C@H]2C[C@@H]2c2ccccc2)[C@H](C(=O)N[C@H]2C[C@@H]2c2ccccc2)C1`, for which the results for the EC50 (in experiment [1]; on Toll-like receptor 1/2) were 250 nM and 30 nM, respectively.

Regarding `O=C(N[C@H]1C[C@@H]1c1ccccc1)[C@@H]1CN(C(=O)c2ccc(C(=O)N3C[C@@H](C(=O)N[C@H]4C[C@@H]4c4ccccc4)[C@H](C(=O)N[C@H]4C[C@@H]4c4ccccc4)C3)s2)C[C@H]1C(=O)N[C@H]1C[C@@H]1c1ccccc1`, the EC50 was over 5000 nM in experiment [1] and 350 nM on Toll-like receptor 1/2.

With `CCCCCCCCCCCCNC(=O)[C@@H]1CN(C(=O)c2ccc(C(=O)N3C[C@@H](C(=O)NCCCCCCCCCCCC)[C@H](C(=O)NCCCCCCCCCCCC)C3)cc2)C[C@H]1C(=O)NCCCCCCCCCCCC`, the EC50 (in experiment [1]; on Toll-like receptor 1/2) was over 5 nM throughout.

As to `O=C(N[C@H]1C[C@@H]1c1ccccc1)[C@@H]1CN(C(=O)[C@H]2CC[C@@H](C(=O)N3C[C@@H](C(=O)N[C@H]4C[C@@H]4c4ccccc4)[C@H](C(=O)N[C@H]4C[C@@H]4c4ccccc4)C3)CC2)C[C@H]1C(=O)N[C@H]1C[C@@H]1c1ccccc1`, the EC50 (in experiment [1]; at Toll-like receptor 1/2) was over 5000 nM in each case.

In the case of `O=C(NCCc1ccc(F)cc1)[C@@H]1CN(C(=O)c2ccc(C(=O)N3C[C@@H](C(=O)NCCc4ccc(F)cc4)[C@H](C(=O)NCCc4ccc(F)cc4)C3)c(O)c2)C[C@H]1C(=O)NCCc1ccc(F)cc1`, the EC50 is over 5000 nM in experiment [1] and 130 nM at Toll-like receptor 1/2.

As to `O=C(N[C@H]1C[C@@H]1c1ccccc1)[C@@H]1CN(C(=O)c2ccc(-c3ccc(C(=O)N4C[C@@H](C(=O)N[C@H]5C[C@@H]5c5ccccc5)[C@H](C(=O)N[C@H]5C[C@@H]5c5ccccc5)C4)cc3)cc2)C[C@H]1C(=O)N[C@H]1C[C@@H]1c1ccccc1`, the EC50 in experiment [1] was 2300 nM; on Toll-like receptor 1/2 it was 90 nM.

For `CCCCCCNC(=O)[C@@H]1CN(C(=O)c2ccc(C(=O)N3C[C@@H](C(=O)NCCCCCC)[C@H](C(=O)N[C@@H]4C[C@H]4c4ccccc4)C3)cc2)C[C@H]1C(=O)N[C@@H]1C[C@H]1c1ccccc1`, the EC50 in experiment [1] is 1100 nM; on Toll-like receptor 1/2 it was 0.8 nM.

Regarding `O=C(N[C@H]1C[C@@H]1c1ccccc1)[C@@H]1CN(C(=O)c2ccc(C(=O)N3C[C@@H](C(=O)N[C@H]4C[C@@H]4c4ccccc4)[C@H](C(=O)N[C@H]4C[C@@H]4c4ccccc4)C3)nc2)C[C@H]1C(=O)N[C@H]1C[C@@H]1c1ccccc1`, the EC50 in experiment [1] was determined as 270 nM; on Toll-like receptor 1/2 it was 4 nM.

Take `O=C(N[C@H]1C[C@@H]1c1ccccc1)[C@@H]1CN(C(=O)c2ccc(C(=O)N3C[C@@H](C(=O)N[C@H]4C[C@@H]4c4ccccc4)[C@H](C(=O)N[C@H]4C[C@@H]4c4ccccc4)C3)c(Br)c2)C[C@H]1C(=O)N[C@H]1C[C@@H]1c1ccccc1`: the EC50 (in experiment [1]; on Toll-like receptor 1/2) was over 5000 nM throughout.

Take `CCCCNC(=O)[C@@H]1CN(C(=O)c2ccc(C(=O)N3C[C@@H](C(=O)N[C@H]4C[C@@H]4c4ccccc4)[C@H](C(=O)N[C@@H]4C[C@H]4c4ccccc4)C3)cc2)C[C@H]1C(=O)NCCCC`: the values for the EC50 (in experiment [1]; at Toll-like receptor 1/2) were 60 nM and 0.28 nM, respectively.

Regarding `O=C(N[C@H]1C[C@@H]1c1ccccc1)[C@@H]1CN(C(=O)C#CC(=O)N2C[C@@H](C(=O)N[C@H]3C[C@@H]3c3ccccc3)[C@H](C(=O)N[C@H]3C[C@@H]3c3ccccc3)C2)C[C@H]1C(=O)N[C@H]1C[C@@H]1c1ccccc1`, the EC50 (in experiment [1]; at Toll-like receptor 1/2) was over 5000 nM each time.

Turning to `O=C(N[C@H]1C[C@@H]1c1ccccc1)[C@@H]1CN(C(=O)c2ccc(C(=O)N3C[C@@H](C(=O)N[C@H]4C[C@@H]4c4ccccc4)[C@H](C(=O)N[C@H]4C[C@@H]4c4ccccc4)C3)c3ccccc23)C[C@H]1C(=O)N[C@H]1C[C@@H]1c1ccccc1`, the EC50 (in experiment [1]; on Toll-like receptor 1/2) was over 5000 nM in each case.

Regarding `O=C(N[C@H]1C[C@@H]1c1ccc(Br)cc1)[C@@H]1CN(C(=O)c2ccc(C(=O)N3C[C@@H](C(=O)N[C@H]4C[C@@H]4c4ccc(Br)cc4)[C@H](C(=O)N[C@@H]4C[C@H]4c4ccc(Br)cc4)C3)cc2)C[C@H]1C(=O)N[C@H]1C[C@@H]1c1ccc(Br)cc1`, the EC50 in experiment [1] is over 5000 nM; on Toll-like receptor 1/2, 1600 nM.

As for `O=C(N[C@H]1C[C@@H]1c1ccccc1)[C@@H]1CN(C(=O)COCC(=O)N2C[C@@H](C(=O)N[C@H]3C[C@@H]3c3ccccc3)[C@H](C(=O)N[C@H]3C[C@@H]3c3ccccc3)C2)C[C@H]1C(=O)N[C@H]1C[C@@H]1c1ccccc1`, the EC50 (in experiment [1]; on Toll-like receptor 1/2) was over 5000 nM throughout.

Regarding `O=C(N[C@H]1C[C@@H]1c1ccccc1)[C@@H]1CN(C(=O)c2cc(Cl)c(C(=O)N3C[C@@H](C(=O)N[C@H]4C[C@@H]4c4ccccc4)[C@H](C(=O)N[C@H]4C[C@@H]4c4ccccc4)C3)cc2Cl)C[C@H]1C(=O)N[C@H]1C[C@@H]1c1ccccc1`, the EC50 is over 5000 nM in experiment [1] and 360 nM at Toll-like receptor 1/2.

As for `O=C(O)[C@@H]1CN(C(=O)c2ccc(C(=O)N3C[C@@H](C(=O)N[C@H]4C[C@@H]4c4ccccc4)[C@H](C(=O)N[C@@H]4C[C@H]4c4ccccc4)C3)cc2)C[C@H]1C(=O)N[C@H]1C[C@@H]1c1ccccc1`, the EC50 in experiment [1] was over 5000 nM; on Toll-like receptor 1/2, 200 nM.

Consider `CCCCCCCCCCCCCCNC(=O)[C@@H]1CN(C(=O)c2ccc(C(=O)N3C[C@@H](C(=O)NCCCCCCCCCCCCCC)[C@H](C(=O)NCCCCCCCCCCCCCC)C3)cc2)C[C@H]1C(=O)NCCCCCCCCCCCCCC`, for which the EC50 (in experiment [1]; at Toll-like receptor 1/2) was over 5 nM each time.

Consider `COC(=O)[C@@H]1CN(C(=O)c2ccc(C(=O)N3C[C@@H](C(=O)N[C@H]4C[C@@H]4c4ccccc4)[C@H](C(=O)N[C@@H]4C[C@H]4c4ccccc4)C3)cc2)C[C@H]1C(=O)N[C@H]1C[C@@H]1c1ccccc1`, for which the EC50 in experiment [1] was 640 nM; on Toll-like receptor 1/2 it was 15 nM.

Turning to `O=C(N[C@H]1C[C@@H]1c1ccc(Cl)cc1)[C@@H]1CN(C(=O)c2ccc(C(=O)N3C[C@@H](C(=O)N[C@H]4C[C@@H]4c4ccc(Cl)cc4)[C@H](C(=O)N[C@@H]4C[C@H]4c4ccc(Cl)cc4)C3)cc2)C[C@H]1C(=O)N[C@H]1C[C@@H]1c1ccc(Cl)cc1`, the EC50 in experiment [1] was 5000 nM; at Toll-like receptor 1/2, 40 nM.

In the case of `CCCCCCCCNC(=O)[C@@H]1CN(C(=O)c2ccc(C(=O)N3C[C@@H](C(=O)N[C@H]4C[C@@H]4c4ccccc4)[C@H](C(=O)N[C@@H]4C[C@H]4c4ccccc4)C3)cc2)C[C@H]1C(=O)NCCCCCCCC`, the EC50 in experiment [1] was 1000 nM; at Toll-like receptor 1/2, 1 nM.

Turning to `O=C(NCCc1ccc(F)cc1)[C@@H]1CN(C(=O)[C@H]2CC[C@@H](C(=O)N3C[C@@H](C(=O)NCCc4ccc(F)cc4)[C@H](C(=O)NCCc4ccc(F)cc4)C3)CC2)C[C@H]1C(=O)NCCc1ccc(F)cc1`, the EC50 (in experiment [1]; at Toll-like receptor 1/2) was over 5000 nM throughout.

In the case of `CCCCCCCCCCCCCCNC(=O)[C@@H]1CN(C(=O)c2ccc(C(=O)N3C[C@@H](C(=O)N[C@H]4C[C@@H]4c4ccccc4)[C@H](C(=O)N[C@@H]4C[C@H]4c4ccccc4)C3)cc2)C[C@H]1C(=O)NCCCCCCCCCCCCCC`, the EC50 in experiment [1] worked out at 10 nM; on Toll-like receptor 1/2 it was 0.17 nM.

Take `CCCCCCCCCCCCCCCCNC(=O)[C@@H]1CN(C(=O)c2ccc(C(=O)N3C[C@@H](C(=O)N[C@H]4C[C@@H]4c4ccccc4)[C@H](C(=O)N[C@@H]4C[C@H]4c4ccccc4)C3)cc2)C[C@H]1C(=O)NCCCCCCCCCCCCCCCC`: the EC50 came to 1000 nM in experiment [1] and 2.5 nM at Toll-like receptor 1/2.

A word on the EC50: it is the concentration at which the effect is half-maximal. Low values mean an effect from little substance, high ones a need for much substance.
